Assay results: PubChem BioAssay (NCI)
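Where inhibition never reached the appropriate level, the endpoint shown equals the highest concentration tested. Otherwise, values were interpolated linearly from a five-concentration, 48-hour dose response in 96-well plates. At the TGI there is no net growth.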

Tests used:
Test in all cases: DTP human tumour cell line panel, 48 h
[1] = test system: A549 NSCLC
[2] = test system: DLD-1 colon
[3] = test system: OVCAR-5 ovarian
[4] = test system: IGROV1 ovarian
[5] = test system: OVCAR-3 ovarian
[6] = test system: HCT-15 colon
[7] = test system: UO-31 renal
[8] = test system: SK-MEL-2 melanoma
[9] = test system: DMS 114 small cell lung
[10] = test system: U251 CNS
[11] = test system: HT29 colon
[12] = test system: SF-295 CNS
[13] = test system: OVCAR-8 ovarian
[14] = test system: SNB-19 CNS
[15] = test system: XF 498 CNS
[16] = test system: HOP-62 NSCLC
[17] = test system: HOP-92 NSCLC
[18] = test system: SN12C renal
[19] = test system: NCI-H23 lung
[20] = test system: M19-MEL melanoma
[21] = test system: HCT-116 colon
[22] = test system: CAKI-1 renal
[23] = test system: HL-60(TB) leukemia
[24] = test system: M14 melanoma
[25] = test system: TK-10 renal
[26] = test system: SK-OV-3 ovarian
[27] = test system: UACC-257 melanoma
[28] = test system: HCC-2998 colon
[29] = test system: RPMI-8226 leukemia
[30] = test system: SK-MEL-28 melanoma
[31] = test system: SR leukemia
[32] = test system: EKVX NSCLC
[33] = test system: RXF-631 renal
[34] = test system: RXF 393 renal
[35] = test system: HOP-18 NSCLC
[36] = test system: UACC-62 melanoma
[37] = test system: A498 renal
[38] = test system: SNB-75 CNS
[39] = test system: SF-539 CNS
[40] = test system: SK-MEL-5 melanoma
[41] = test system: ACHN renal
[42] = test system: COLO 205 colon
[43] = test system: NCI-H226 lung
[44] = test system: NCI-H522 lung
[45] = test system: LOX IMVI melanoma
[46] = test system: NCI-H460 lung
[47] = test system: K-562 leukemia
[48] = test system: MALME-3M melanoma
[49] = test system: CCRF-CEM leukemia
[50] = test system: KM20L2 colon
[51] = test system: 786-0 renal
[52] = test system: MOLT-4 leukemia
[53] = test system: SF-268 CNS
[54] = test system: SNB-78 CNS
[55] = test system: KM12 colon
[56] = test system: LXFL 529 NSCLC

Measured: TGI

CN1CC[C@]2(C)c3c(O)cccc3CC3CCCC1C32C (stereo partly specified)
72.7 µM: [28]
> 100 µM: all other assays above
